Test results taken from ChEMBL document CHEMBL5634180, “Serratiomycins D1-D3, Antibacterial Cyclic Peptides from a Serratia sp. and Structure Revision of Serratiomycin” (2024).
≈ marks a conversion by molar mass, not a printed value.

Columns and labels:
Staphylococcus aureus = test: Antibacterial activity against Staphylococcus aureus ATCC 25923 incubated for 16 to 20 hrs; type: functional; settings: time 16-20 hrs
Enterococcus faecium = test: Antibacterial activity against Enterococcus faecium ATCC 19434 incubated for 16 to 20 hrs; type: functional; settings: time 16-20 hrs
Enterococcus faecalis = test: Antibacterial activity against Enterococcus faecalis ATCC 19433 incubated for 16 to 20 hrs; type: functional; settings: time 16-20 hrs
Klebsiella pneumoniae = test: Antibacterial activity against Klebsiella pneumoniae ATCC 10031 incubated for 16 to 20 hrs; type: functional; settings: time 16-20 hrs
Escherichia coli = test: Antibacterial activity against Escherichia coli ATCC 25922 incubated for 16 to 20 hrs; type: functional; settings: time 16-20 hrs
Candida albicans = test: Antifungal activity against Candida albicans ATCC 10231 incubated for 16 to 20 hrs; type: functional; settings: time 16-20 hrs
Aspergillus fumigatus = test: Antifungal activity against Aspergillus fumigatus HIC6094 incubated for 16 to 20 hrs; type: functional; settings: time 16-20 hrs
Trichophyton rubrum = test: Antifungal activity against Trichophyton rubrum NBRC9185 incubated for 16 to 20 hrs; type: functional; settings: time 16-20 hrs
[1] = system: Trichophyton mentagrophytes; test: Antifungal activity against Trichophyton mentagrophytes IFM40996 incubated for 16 to 20 hrs; type: functional; settings: time 16-20 hrs
Salmonella enterica = test: microbe, parasite or virus in culture; settings: ATCC 14028
Description: Antibacterial activity against Salmonella enterica ATCC 14028 incubated for 16 to 20 hrs

Row | Structure (SMILES) | MIC (Staphylococcus aureus) | MIC (Enterococcus faecium) | MIC (Enterococcus faecalis) | MIC (Klebsiella pneumoniae) | MIC (Escherichia coli) | MIC (Candida albicans) | MIC (Aspergillus fumigatus) | MIC (Trichophyton rubrum) | MIC [1] | MIC (Salmonella enterica)
1 | CCCCCC/C=C\C[C@@H]1CC(=O)N[C@H](CC(C)C)C(=O)N[C@@H](CO)C(=O)N[C@@H]([C@@H](C)O)C(=O)N[C@H](Cc2ccccc2)C(=O)N[C@@H]([C@H](C)CC)C(=O)O1 | 16 mg/L (≈ 21.1 µM) | 32 mg/L (≈ 42.2 µM) | 32 mg/L (≈ 42.2 µM) | > 128 mg/L | > 128 mg/L | > 128 mg/L | > 128 mg/L | > 128 mg/L | > 128 mg/L | 8 mg/L (≈ 10.6 µM)
2 | CCCCCCCCC[C@@H]1CC(=O)N[C@H](CC(C)C)C(=O)N[C@@H](CO)C(=O)N[C@@H]([C@@H](C)O)C(=O)N[C@H](Cc2ccccc2)C(=O)N[C@@H]([C@H](C)CC)C(=O)O1 | 16 mg/L (≈ 21.1 µM) | 32 mg/L (≈ 42.1 µM) | 64 mg/L (≈ 84.2 µM) | > 128 mg/L | > 128 mg/L | > 128 mg/L | > 128 mg/L | > 128 mg/L | > 128 mg/L | 16 mg/L (≈ 21.1 µM)
3 | CCCCCCC[C@@H]1CC(=O)N[C@H](CC(C)C)C(=O)N[C@@H](CO)C(=O)N[C@@H]([C@@H](C)O)C(=O)N[C@H](Cc2ccc(O)cc2)C(=O)N[C@@H](C(C)C)C(=O)O1 | > 128 mg/L | > 128 mg/L | > 128 mg/L | > 128 mg/L | > 128 mg/L | > 128 mg/L | > 128 mg/L | > 128 mg/L | > 128 mg/L | > 128 mg/L
4 | CCCCCCC[C@@H]1CC(=O)N[C@H](CC(C)C)C(=O)N[C@@H](CO)C(=O)N[C@@H]([C@@H](C)O)C(=O)N[C@H](Cc2ccccc2)C(=O)N[C@@H]([C@H](C)CC)C(=O)O1 | 32 mg/L (≈ 43.7 µM) | 32 mg/L (≈ 43.7 µM) | 32 mg/L (≈ 43.7 µM) | > 128 mg/L | > 128 mg/L | > 128 mg/L | > 128 mg/L | > 128 mg/L | > 128 mg/L | 32 mg/L (≈ 43.7 µM)
5 | CCCCCCC[C@@H](O)CC(=O)N[C@H](CC(C)C)C(=O)N[C@@H](CO)C(=O)N[C@H](C(=O)N[C@H](Cc1ccccc1)C(=O)N[C@H](C(=O)OC)[C@H](C)CC)[C@@H](C)O | > 128 mg/L | > 128 mg/L | > 128 mg/L | > 128 mg/L | > 128 mg/L | > 128 mg/L | > 128 mg/L | > 128 mg/L | > 128 mg/L | > 128 mg/L
6 | C[C@@H]1[C@H](O)[C@@H](C)/C=C/C=C/C=C/C=C/C=C/C=C/C=C/[C@H](O[C@@H]2O[C@H](C)[C@@H](O)[C@H](N)[C@@H]2O)C[C@@H]2O[C@](O)(C[C@@H](O)C[C@@H](O)[C@H](O)CC[C@@H](O)C[C@@H](O)CC(=O)O[C@H]1C)C[C@H](O)[C@H]2C(=O)O [AMPHOTERICIN B] |  |  |  |  |  | 0.5 mg/L (≈ 0.541 µM) | 1 mg/L (≈ 1.08 µM) | 1 mg/L (≈ 1.08 µM) | 1 mg/L (≈ 1.08 µM) | 
7 | CC1(C)S[C@@H]2[C@H](NC(=O)[C@H](N)c3ccccc3)C(=O)N2[C@H]1C(=O)O [AMPICILLIN] | 0.13 mg/L (≈ 0.372 µM) | 0.5 mg/L (≈ 1.43 µM) | 0.5 mg/L (≈ 1.43 µM) | > 128 mg/L | 8 mg/L (≈ 22.9 µM) |  |  |  |  | 0.5 mg/L (≈ 1.43 µM)
8 | CN(C)[C@@H]1C(O)=C(C(N)=O)C(=O)[C@@]2(O)C(O)=C3C(=O)c4c(O)cccc4[C@@](C)(O)[C@H]3C[C@@H]12 [TETRACYCLINE] |  |  |  | 0.25 mg/L (≈ 0.563 µM) |  |  |  |  |  | 
